{"source": "patent US6211168A", "about": "“Methods for preparation and use of 1α,24 (S)-dihydroxy vitamin D2” (Bone Care International, Inc, priority 1995, dated 2001)", "key": {"vitamin D receptor (VDR)": {"target": "T1, vitamin D receptor (VDR) (Homo sapiens, UniProt P11473)", "T1 construct": "RXR partner endogenous (monkey)", "T1 sequence (P11473 1-427)": "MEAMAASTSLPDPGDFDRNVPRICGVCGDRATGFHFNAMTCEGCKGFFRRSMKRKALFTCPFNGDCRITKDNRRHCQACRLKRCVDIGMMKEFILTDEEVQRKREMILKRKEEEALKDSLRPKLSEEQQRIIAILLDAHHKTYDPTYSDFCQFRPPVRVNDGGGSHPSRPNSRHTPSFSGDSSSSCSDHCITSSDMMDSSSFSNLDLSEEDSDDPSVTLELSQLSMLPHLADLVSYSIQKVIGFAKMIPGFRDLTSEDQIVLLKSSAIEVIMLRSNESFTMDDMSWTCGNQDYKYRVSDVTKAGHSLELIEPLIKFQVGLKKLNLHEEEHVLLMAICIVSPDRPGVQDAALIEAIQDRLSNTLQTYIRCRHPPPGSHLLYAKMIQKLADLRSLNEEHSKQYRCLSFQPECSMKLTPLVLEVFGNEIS", "test": "vitamin D-dependent transcriptional activation: growth hormone production in transfected COS-1 cells", "assay_type": "cell-based", "conditions": "transfected COS-1 cells", "description": "The biological activity in vitro of chemically synthesized 1α,24(S)-(OH)2 D2 and 1α,24(R)-(OH)2 D2 was measured using a vitamin D-dependent transcriptional activation model system in which a vitamin D receptor (VDR)-expressing plasmid pSG5-hVDR1/3and a plasmid p(CT4)^4 TKGH containing a Growth Hormone (GH)-gene, under the control of a vitamin D-responsive element (VDRE) were co-transfected into Green monkey kidney, COS-1 cells. DNA's for these two vectors were supplied by Dr. Mark Haussler, Department of Biochemistry, University of Arizona, Tucson, Ariz.\nTranfected cells were incubated with vitamin D metabolites and growth hormone production was measured."}, "[1]": {"target": "T2, vitamin D serum binding protein (DBP) (Rattus norvegicus, UniProt P04276)", "T2 sequence (P04276 17-476)": "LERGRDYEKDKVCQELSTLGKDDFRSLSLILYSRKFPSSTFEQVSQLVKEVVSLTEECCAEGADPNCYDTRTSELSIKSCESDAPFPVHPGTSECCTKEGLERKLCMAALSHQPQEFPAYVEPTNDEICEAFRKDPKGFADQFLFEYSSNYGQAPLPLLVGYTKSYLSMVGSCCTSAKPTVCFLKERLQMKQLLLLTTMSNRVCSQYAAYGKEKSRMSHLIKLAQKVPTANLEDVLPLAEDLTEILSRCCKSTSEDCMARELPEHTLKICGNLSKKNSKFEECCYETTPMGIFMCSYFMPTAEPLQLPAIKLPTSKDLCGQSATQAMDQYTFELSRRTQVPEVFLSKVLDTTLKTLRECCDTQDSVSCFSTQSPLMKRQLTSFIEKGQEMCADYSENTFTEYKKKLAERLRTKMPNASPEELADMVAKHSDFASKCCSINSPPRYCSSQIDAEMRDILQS", "test": "affinity for vitamin D serum binding protein in vitamin D deficient rat serum", "source_text": "In addition, the weak binding by the DBP was indicative of more rapid clearance, allowing for low toxicity."}}}
{"smiles": "C=C1/C(=C\\C=C2/CCC[C@]3(C)[C@@H]([C@H](C)/C=C/[C@@](C)(O)C(C)C)CC[C@@H]23)C[C@@H](O)C[C@@H]1O", "note": "[1α,24(S)-(OH)2 D2, 1α,24(S)-dihydroxy vitamin D2]", "values": [{"measurement": "activity in the transcriptional activation system compared with the 24(R) epimer", "setting": "vitamin D receptor (VDR)", "value": "significantly more activity in this system than 1α,24(R)-(OH)2 D2"}, {"measurement": "binding affinity for the vitamin D serum binding protein", "setting": "[1]", "value": "relatively poor binding affinity"}, {"measurement": "binding to the vitamin D serum binding protein relative to 1,25-(OH)2 D3", "setting": "[1]", "value": "more weakly than does 1,25-(OH)2 D3"}]}
